Data on four molecules can be found in patent US7863335B2, “Non-antibiotic intervention of chlamydial infection” (The University of Medicine and Dentistry of New Jersey, priority 2004, dated 2011).

Series [1] concerns A549 cells. Kind of series: DNA synthesis ([methyl-3H]thymidine incorporation) in A549 cells. The series is classed as cell-based, Human. Here is the method: (§1) The lack of cytotoxic activity in GM6001 was further supported by measuring DNA synthesis. Subconfluent cells grown in 24 well plates were fed with medium (0.5 ml/well) containing indicated concentrations of GM6001 for 40 hours. 2 μl of [methyl-3H]thymidine (specific activity: 20 Ci/mmole, Moravek Biochemical, Brea, Calif.) was added into the culture and incubated for 2 hours. The amount of thymidine incorporated into DNA was determined as we previously described (3).

Series [2] has as its system HeLa cells. Kind of series: DNA synthesis ([methyl-3H]thymidine incorporation) in HeLa cells. The series is classed as cell-based, Human. The method, then:
as §1
(In general: Incorporation of labelled thymidine or its analogues reports DNA synthesis.)

Series [3] relates to Salmonella Enterica Serovar Typhimurium. Kind of series: Growth of S. enterica as free-living organism in liquid medium (OD600). The series is classed as cell-based.
The test system of series [4] is strain 434/bu of serovar L2 (L2, biovar LGV). Kind of series: MOMP immunofluorescence of inclusion formation in L2-infected HeLa cells. The series is classed as cell-based, Chlamydia trachomatis. Here is the method:
Human cervical carcinoma HeLa cells grown on coverslips were exposed to an EB stock of strain 434/bu of serovar L2 (L2, biovar LGV) for 2 hours, washed to remove free EBs, and cultured in medium containing indicated concentrations of GM6001 plus 1 μg/ml cycloheximide, an inhibitor of eukaryotic protein synthesis which is commonly used to facilitate chlamydial growth. 40 hours later, cells were fixed with methanol, and reacted for 1 hour with a monoclonal antibody against the major outer membrane protein (MOMP) of L2. After three washes with PBS, coverslips were reacted with fluorescein isothiocyanate-conjugated goat anti-mouse IgG (Sigma, St. Louis, Mo.) for 30 min. After additional washes, coverslips were mounted onto glass slides and viewed with a Nikon Eclypse E1000 fluorescent microscope.

Series [5] relates to L2 (biovar LGV). Kind of series: Live images (light microscope) of inclusion formation in L2-infected HeLa cells. The note with it: in both the presence and absence of cycloheximide. The series is classed as cell-based, Chlamydia trachomatis. From the text: The inhibition of L2 growth by GM6001 could be viewed directly under a light microscope without immunostaining. Shown in FIG. 1C are images obtained from live cultures.

Series [6] relates to Chlamydia. Kind of series: Titration of infectious EBs produced by infected HeLa cells. The series is classed as cell-based, Chlamydia trachomatis. The method, then:
Inhibition of chlamydial growth was obtained when GM6001 and TAPI-0 was added to cultures at the end of the two hour attachment/entry period (FIGS. 1-3), a point where free unbound EBs had been removed by extensive washes. The entry-independent inhibition was also seen by titrating infectious EBs produced by infected HeLa cells (FIG. 6). […] At this point, EBs have already completed the entry phase and have differentiated into RBs in inclusions. Even when GM6001 treatment was started 24 h after infection, a point where the number of RBs peaks during the chlamydial developmental cycle, a 99% reduction in EB production was observed (FIG. 6).

The subject of series [7] is L. delbrueckii (ATCC 12315). Kind of series: Growth of L. delbrueckii in liquid culture (OD600). The series is classed as cell-based, Lactobacillus delbrueckii. The note with it: 20 μM, hourly up to 5 h postinoculation. The method, then: (§2) An E. coli MG1655 colony was inoculated into 10 ml LB broth, which was then divided into 2 ml aliquots. After overnight culture, OD600 measurements were taken. An overnight L. delbrueckii (ATCC 12315) culture was diluted 1:100, and cultured in the presence or absence of 20 μM of GM 6001. OD600 values were measured hourly up to 5 h postinoculation.

Series [8] deals with strain UW-3/Cx of serovar D (biovar trachomatis). Kind of series: Chlamydial lipopolysacharide immunostaining of inclusion formation, serovar D in HeLa cells. The series is classed as cell-based, Chlamydia trachomatis.
For series [9], the system named is MoPn (biovar mouse). Kind of series: Chlamydial DNA synthesis of MoPn (biovar mouse). Conditions: dose response. The series is classed as cell-based, Chlamydia trachomatis. The method, then:
We next tested whether GM6001 was also effective against the remaining two biovars of C. trachomatis. […] The effect of GM6001 on biovar mouse was determined by measuring chlamydial DNA synthesis with procedures that we previously detailed (1, 3).

Series [10] has as its system Salmonella Enterica Serovar Typhimurium. Kind of series: Intracellular growth of S. enterica in HeLa cells (colony-forming units). The series is classed as cell-based. Conditions: 20 μM, 1.5 and 6 h, 50 μg/ml gentamycin.
Procedure: To assess whether its intracellular growth is affected by the inhibitor, HeLa cells were infected with a fresh culture of S. enterica grown to stationary phase as previously described (16). After washes to remove free bacteria, the cells were cultured with medium containing 50 μg/ml gentamycin (to kill any residual free bacteria) plus or minus 20 μM GM6001 for 1.5 and 6 h. Gentamycin was then removed by washes. Intracellular bacteria were released by 0.1% Triton X-100, serially diluted and plated onto LB agar plates. After overnight incubation at 37° C., colony-forming units were scored.
The test system of series [11] is L2. Kind of series: Dot blot analysis of MOMP, L2 growth in HeLa cells. The series is classed as cell-based, Chlamydia trachomatis.
Series [12] deals with HeLa cells. Kind of series: Cytotoxicity judged by cellular morphology of HeLa cells. The series is classed as cell-based, Human.
For series [13], the system named is L2. Kind of series: Pretreatment of host HeLa cells or EBs with GM6001, immunostaining of L2 growth. The series is classed as cell-based, Chlamydia trachomatis. The method, then: To address whether suppression of chlamydial growth resulted from inhibition of host or bacterial enzymes, we determined the effect of pretreatment of EB and host cells with a hydroxamate on chlamydial growth. HeLa cells were cultured for 2 h with medium containing 20 °μM GM6001 and washed 3 times with medium before they were infected with a regular EB stock. Likewise, an EB stock was also incubated with GM6001, washed, and added to untreated HeLa cells. As control, GM6001 (final concentration: 20 μM) was added into and maintained in the culture medium after the attachment/entry period.

Series [14] concerns L2 (biovar LGV). Kind of series: Dot blot analysis of MOMP, L2 growth in A549 cells. Conditions: 40 hours after infection, 1 μg/ml cycloheximide. The series is classed as cell-based, Chlamydia trachomatis. Here is the method: Infection of A549 cells and inhibitor treatment were carried out as described above. 40 hours after infection, cells were lysed in 200 μl of H2O, a 50 μl sample of the resulting EB/RB extract was blotted onto Zeta Probe membrane (Bio-Rad), and sequentially reacted with the L2 MOMP antibody described above, and horseradish peroxidase-conjugated rabbit anti-mouse IgG.

The subject of series [15] is E. coli MG1655. Kind of series: Growth of E. coli in LB broth (OD600). The series is classed as cell-based, Escherichia coli. The note with it: overnight culture, concentrations indicated in FIG. 4A. The method, then: as §2

Like-named read-outs stand apart in the source and are kept apart here. Bounds are passed on as bounds.

On to `C[C@@H]1C[C@@H]([C@H](O)CC2CC(=O)NC(=O)C2)C(=O)[C@@H](C)C1` [cycloheximide], for which the “DNA synthesis (thymidine incorporated into DNA)” value is listed as “effectively inhibited DNA synthesis activity” in series [1] (uninfected A549 cells, 40 hours treatment) and “effectively inhibited DNA synthesis activity” in [2] (uninfected HeLa cells, 40 hours treatment).

Take `CNC(=O)[C@H](Cc1c[nH]c2ccccc12)NC(=O)[C@@H](CC(=O)NO)CC(C)C` [GM6001]: the “growth of S. enterica in liquid medium” value in series [3] is “had no effect”. Further, the “number of inclusions (L2 inclusion formation)” value in series [4] (increasing concentrations of GM6001 plus 1 μg/ml cycloheximide, 40 hours) is on record as “number of inclusions declined progressively”. Also, the “inhibition of L2 growth / inclusion formation in live cultures” value in [5] is “effective against chlamydial infection”. Further, the “DNA synthesis (thymidine incorporated into DNA)” value in series [1] and in series [2] was “did not exhibit any inhibitory effect” each time. Moreover, the “effect on cycloheximide-induced inhibition of DNA synthesis” value in series [1] and in series [2] was “no synergistic or additive effect” in each case. For the same molecule, the inhibition at 20 µM in [6] (Chlamydia, HeLa, 20 μM, added at the end of attachment/entry period, read-out: inhibition of EB production) is over 100%. The “inhibition of EB production” value in series [6] (added 8 h after infection) was “comparable inhibitory activity”. Moreover, the “reduction in EB production” value in series [6] (treatment started 24 h after infection) is given as 99%. Also, the “growth of Lactobacillus delbrueckii (OD600)” value in series [7] is on record as “did not show any effects”. Also, the “inclusion formation by serovar D” value in [8] was “efficiently suppressed inclusion formation”. In series [9], the “inhibition of MoPn growth (chlamydial DNA synthesis)” value is reported as “dose-response curve of GM6001 inhibition of MoPn growth was obtained”. Also, the “growth of S. enterica inside HeLa cells (colony-forming units)” value in series [10] is “did not inhibit”. In addition, the “chlamydial (L2) growth, MOMP dot blot” value in series [11] is on record as “no MOMP signals”. For the same molecule, the “cytotoxic effects based on morphology” value in series [12] (uninfected or L2-infected HeLa cells) is reported as “no apparent cytotoxic effects”. Besides, the “chlamydial infection after pretreatment of EB stock” value in [13] (EB stock incubated with GM6001, washed, added to untreated HeLa cells) is given as “completely ineffective”. For the same molecule, the “chlamydial infection after pretreatment of host HeLa cells” value in series [13] (HeLa cells cultured 2 h with 20 μM GM6001, washed 3 times before infection) is “completely ineffective”. Also, in series [14], the “MOMP signal (L2 growth)” value is recorded as “no signal was detected”.

Regarding `CC(C)C[C@H](CC(=O)NO)C(=O)N[C@@H](Cc1ccc2ccccc2c1)C(=O)N[C@@H](C)C(N)=O` [TAPI-0, N-(R)-[2-(Hydroxyaminocarbonyl)methyl]-4-methylpentanoyl-L-naphthylalanyl-L-alanine amide], in series [4] (at both 7.5 and 15 μM), the “inhibition of L2 infection (MOMP immunofluorescence)” value is “strongly inhibited”. Moreover, the “growth of E. coli (OD600)” value in series [15] is on record as “did not show any effects”.

For the molecule `CNC(=O)[C@H](Cc1c[nH]c2ccccc12)NC(=O)[C@H](CC(C)C)NC(=O)OC(C)(C)C` [GM6001 Negative Control, N-t-butoxycarbonyl-L-leucyl-L-tryptophan methylamide], the “DNA synthesis (thymidine incorporated into DNA)” value in series [2] is “no adverse effect”. In series [11], the “chlamydial (L2) growth, MOMP dot blot” value is on record as “no detectable effect”. The “adverse effect on morphology of HeLa cells” value in [12] (data not shown) is “no adverse effect”.

As a reminder, the inhibition is the percentage by which the read-out fell short of the control.
